The NIST ThermoML archive (doi:10.1021/je0302001)

Assay: mn = molality of the nth substance listed, in mol/kg
Conditions: for surface tension liquid-gas: Ring tensiometer; for viscosity / speed of sound / mass density: 101.3 kPa, Liquid; for viscosity: Capillary tube (Ostwald / Ubbelohde) method

O=[N+]([O-])[O-].O=[N+]([O-])[O-].[Zn+2] [nitric acid, zinc salt] + O
Conditions | mass density [kg/m3] | speed of sound [m/s] | surface tension liquid-gas [mN/m] | viscosity [mPa·s]
293.15 K, m1 = 0.0875 | – | 1489.1 | – | –
293.15 K, m1 = 0.1329 | – | 1488.6 | – | 1.053
293.15 K, m1 = 0.2466 | – | 1494.3 | – | 1.086
293.15 K, m1 = 0.3388 | – | 1499 | – | 1.118
293.15 K, m1 = 0.6111 | – | 1514.8 | – | 1.21
293.15 K, m1 = 0.6405 | – | 1517 | – | 1.223
293.15 K, m1 = 1.113 | – | 1546 | – | 1.428
293.15 K, m1 = 1.258 | – | 1558.9 | – | 1.514
293.15 K, m1 = 1.551 | – | 1578.3 | – | 1.664
293.15 K, m1 = 1.906 | – | 1603.4 | – | 1.931
293.15 K, m1 = 2.145 | – | 1618.3 | – | 2.133
293.15 K, m1 = 2.29 | – | 1627.9 | – | 2.258
293.15 K, m1 = 2.292 | – | 1626.3 | – | –
293.15 K, m1 = 2.344 | – | 1631.6 | – | 2.273
293.15 K, m1 = 2.91 | – | 1666.2 | – | 2.846
293.15 K, m1 = 3.472 | – | 1697.2 | – | 3.61
293.15 K, m1 = 4.075 | – | 1724.9 | – | 4.615
293.15 K, m1 = 4.817 | – | 1752.8 | – | 6.303
293.15 K, m1 = 5.133 | – | – | 85.7 | –
293.15 K, m1 = 5.224 | – | 1762.1 | – | 7.371
293.15 K, m1 = 5.797 | – | 1777.6 | – | 9.658
293.15 K, m1 = 6.245 | – | – | 86.95 | –
293.15 K, m1 = 6.34 | – | 1787.7 | – | 11.98
293.15 K, m1 = 6.89 | – | 1796.2 | – | –
294.3 K, m1 = 0.0875 | 1010.8 | – | – | –
295.95 K, m1 = 4.075 | 1492.7 | – | – | –
296.1 K, m1 = 6.89 | 1712.4 | – | – | –
296.15 K, m1 = 0.2466 | 1034.3 | – | – | –
296.25 K, m1 = 4.817 | 1558.4 | – | – | –
296.5 K, m1 = 1.258 | 1177 | – | – | –
297.05 K, m1 = 0.3388 | 1047.7 | – | – | –
297.05 K, m1 = 1.906 | 1259.3 | – | – | –
297.5 K, m1 = 2.29 | 1304.8 | – | – | –
297.8 K, m1 = 0.6111 | 1087.1 | – | – | –
297.85 K, m1 = 0.1329 | 1016.6 | – | – | –
297.9 K, m1 = 2.292 | 1304.8 | – | – | –
297.95 K, m1 = 4.075 | 1491.1 | – | – | –
298 K, m1 = 2.344 | 1310.8 | – | – | –
298.05 K, m1 = 3.472 | 1432.6 | – | – | –
298.15 K, m1 = 0.0875 | – | 1502.8 | – | –
298.15 K, m1 = 0.1329 | – | 1501.5 | – | 0.937
298.15 K, m1 = 0.2466 | – | 1506.6 | – | 0.968
298.15 K, m1 = 0.3388 | – | 1512.2 | – | 0.997
298.15 K, m1 = 0.6111 | – | 1526.1 | – | 1.081
298.15 K, m1 = 0.6405 | – | 1527.3 | – | 1.093
298.15 K, m1 = 1.113 | – | 1554.3 | – | 1.278
298.15 K, m1 = 1.258 | – | 1570.5 | – | 1.355
298.15 K, m1 = 1.551 | – | 1584.3 | – | 1.489
298.15 K, m1 = 1.906 | – | 1606.9 | – | 1.725
298.15 K, m1 = 2.145 | – | 1620.9 | – | 1.903
298.15 K, m1 = 2.29 | – | 1633 | – | 2.009
298.15 K, m1 = 2.292 | – | 1628.3 | – | –
298.15 K, m1 = 2.344 | – | 1633.6 | – | 2.026
298.15 K, m1 = 2.91 | – | 1665.2 | – | 2.527
298.15 K, m1 = 3.472 | – | 1694.4 | – | 3.188
298.15 K, m1 = 4.075 | – | 1719.1 | – | 4.048
298.15 K, m1 = 4.817 | 1556.8 | – | – | 5.473
298.15 K, m1 = 5.224 | – | – | – | 6.362
298.15 K, m1 = 5.797 | – | – | – | 8.228
298.15 K, m1 = 6.34 | – | – | – | 10.12
